Assay results: patent US4472304A, “(Amido)N-substituted bleomycins, salts thereof and process for preparation thereof” (Nippon Kayaku Kabushiki Kaisha, priority 1981, dated 1984)

Assays:
[1] = tested on: Mycobacterium smegmatis ATCC 607; experiment: Antimicrobial activity against Mycobacterium smegmatis ATCC 607 (agar plate-cylinder); type: cell-based; conditions: standard bleomycin A2 (copper-free) assumed 1,000 mcg potency/mg
Protocol: (§1) 2. ANT[…] MYC[…] ATCC 607 AND BACILLUS SUBTILIS
(§2) The antimicrobial activity was tested against the captioned test organisms by the method of agar plate-cylinder. The activity was recorded on the assumption that the activity of standard sample of bleomycin A2 (copper-free form) is 1,000 mcg poteney/mg.

Bacillus subtilis = experiment: Antimicrobial activity against Bacillus subtilis (agar plate-cylinder); type: cell-based; conditions: standard bleomycin A2 (copper-free) assumed 1,000 mcg potency/mg
Protocol: as §1, §2

pulmonary fibrosis = experiment: Pulmonary toxicity (pulmonary fibrosis) in mice; conditions: for Incidence: Number of mice with pulmonary fibrosis (%) / Incidence: Number of mice with pulmonary fibrosis / Grade: Total score of pulmonary fibrosis/total number of samples / Grade: Total score of pulmonary fibrosis/total number of samples (%): ICR mice, 5 mg/kg i.p. once a day for 10 days; for Incidence: Number of mice with pulmonary fibrosis (%) / Incidence: Number of mice with pulmonary fibrosis: 5 weeks observation; for Incidence: Number of mice with pulmonary fibrosis: mice with fibrosis/total; for Grade: Total score of pulmonary fibrosis/total number of samples / Grade: Total score of pulmonary fibrosis/total number of samples (%): points 0, 1, 2, 4, 6; for Ratio (by comparison with "Bleomycin Complex"): versus Bleomycin Complex

SMILES | Antimicrobial potency of Cu-free compound against Mycobacterium smegmatis ATCC 607 [1] | Antimicrobial potency of Cu-free compound against Bacillus subtilis (Bacillus subtilis) | Incidence: Number of mice with pulmonary fibrosis (%) (pulmonary fibrosis) | Incidence: Number of mice with pulmonary fibrosis (pulmonary fibrosis) | Grade: Total score of pulmonary fibrosis/total number of samples (pulmonary fibrosis) | Grade: Total score of pulmonary fibrosis/total number of samples (%) (pulmonary fibrosis) | Ratio (by comparison with "Bleomycin Complex") (pulmonary fibrosis)
Cc1c(N)nc(C(CC(N)=O)NCC(N)C(=O)NCCCN(C)CCCNCCc2ccc(Cl)cc2)nc1C(=O)NC(C(=O)NC(C)C(O)C(C)C(=O)NC(C(=O)NCCc1nc(-c2nc(C(=O)NCCCN(C)CCCNCCc3ccc(Cl)cc3)cs2)cs1)C(C)O)C(OC1OC(CO)C(O)C(O)C1OC1OC(CO)C(O)C(OC(N)=O)C1O)c1cnc[nH]1 (stereo not shown) [Compound 45, 3-{N--methyl-N--[3-(2-(p-chlorophenyl)ethyl)aminopropyl]amino}-propylamino(amido)N--{3-[N-- methyl-N--[3-(2-(p-chlorophenyl)-ethyl)aminopropyl]amino]propyl}-BLM] | 650 mcg potency/mg | 270 mcg potency/mg | 0% | 0/9 | 0/27 | 0% | 0
Cc1c(N)nc(C(CC(N)=O)NCC(N)C(=O)NCCCNC(C)c2ccccc2)nc1C(=O)NC(C(=O)NC(C)C(O)C(C)C(=O)NC(C(=O)NCCc1nc(-c2nc(C(=O)NCCC[N+](C)(CCCN(Cc3ccccc3)Cc3ccccc3)Cc3ccccc3)cs2)cs1)C(C)O)C(OC1OC(CO)C(O)C(O)C1OC1OC(CO)C(O)C(OC(N)=O)C1O)c1cnc[nH]1 [Compound 47, 3-{N--methyl-N--benzyl-N--[3-(dibenzylamino)propylamino}-propylamino-(amido)N--[3-((S)-1'-phenylethyl)aminopropyl]-BLM] | 5900 mcg potency/mg | 180 mcg potency/mg | 0% | 0/8 | 0/24 | 0% | 0
CCCCCCCCNC(=O)C(N)CNC(CC(N)=O)c1nc(N)c(C)c(C(=O)NC(C(=O)NC(C)C(O)C(C)C(=O)NC(C(=O)NCCc2nc(-c3nc(C(=O)NCCC[N+](C)(CCCN(Cc4ccccc4)Cc4ccccc4)Cc4ccccc4)cs3)cs2)C(C)O)C(OC2OC(CO)C(O)C(O)C2OC2OC(CO)C(O)C(OC(N)=O)C2O)c2cnc[nH]2)n1 (stereo not shown) [Compound 48, 3-{N--methyl-N--benzyl-N--[3-dibenzylamino)proplyamino}-propylamino-(amido)N--[octyl]-BLM] | 2580 mcg potency/mg | 130 mcg potency/mg | 0% | 0/8 | 0/24 | 0% | 0
Cc1c(N)nc(C(CC(N)=O)NCC(N)C(=O)NCCC[N+](C)(CCCN(Cc2ccccc2)Cc2ccccc2)Cc2ccccc2)nc1C(=O)NC(C(=O)NC(C)C(O)C(C)C(=O)NC(C(=O)NCCc1nc(-c2nc(C(=O)NCCC[N+](C)(CCCN(Cc3ccccc3)Cc3ccccc3)Cc3ccccc3)cs2)cs1)C(C)O)C(OC1OC(CO)C(O)C(O)C1OC1OC(CO)C(O)C(OC(N)=O)C1O)c1cnc[nH]1 (stereo not shown) [Compound 49, 3-{N--methyl-N--benzyl-N--[3-(dibenzylamino)propylamino}-propylamino-(amido)N--{3-{N--methyl-N--benzyl-N--[3-dibenzyl-amino)propyl]amino}propyl}-BLM] | 230 mcg potency/mg | 1 mcg potency/mg | 0% | 0/3 | 0/9 | 0% | 0
Cc1c(N)nc(C(CC(N)=O)NCC(N)C(=O)NCc2ccccc2)nc1C(=O)NC(C(=O)NC(C)C(O)C(C)C(=O)NC(C(=O)NCCc1nc(-c2nc(C(=O)NCCC[N+](C)(CCCN(Cc3ccccc3)Cc3ccccc3)Cc3ccccc3)cs2)cs1)C(C)O)C(OC1OC(CO)C(O)C(O)C1OC1OC(CO)C(O)C(OC(N)=O)C1O)c1cnc[nH]1 (stereo not shown) [Compound 51, 3-{N--methyl-N--benzyl-N--[3-(dibenzylamino)propyl]amino}-propylamino-(amido)N--[benzyl]-BLM] | 24461 mcg potency/mg | 410 mcg potency/mg | 0% | 0/8 | 0/24 | 0% | 0
CCCCN(CCCC)CCCNC(=O)C(N)CNC(CC(N)=O)c1nc(N)c(C)c(C(=O)NC(C(=O)NC(C)C(O)C(C)C(=O)NC(C(=O)NCCc2nc(-c3nc(C(=O)NCCC[N+](C)(C)CCCN(Cc4ccccc4)Cc4ccccc4)cs3)cs2)C(C)O)C(OC2OC(CO)C(O)C(O)C2OC2OC(CO)C(O)C(OC(N)=O)C2O)c2cnc[nH]2)n1 (stereo not shown) [Compound 54] | 32633 mcg potency/mg | 2663 mcg potency/mg | 0% | 0/9 | 0/27 | 0% | 0
CC[N+](CC)(CCCNC(=O)c1csc(-c2csc(CCNC(=O)C(NC(=O)C(C)C(O)C(C)NC(=O)C(NC(=O)c3nc(C(CC(N)=O)NCC(N)C(=O)NCCCNC(C)c4ccccc4)nc(N)c3C)C(OC3OC(CO)C(O)C(O)C3OC3OC(CO)C(O)C(OC(N)=O)C3O)c3cnc[nH]3)C(C)O)n2)n1)CCCN(Cc1ccccc1)Cc1ccccc1 [Compound 55, 3-{N,N--diethyl-N--[3-(dibenzylamino)propyl]amino}-propyl-amino-(amido)N--[3-((S)-1'-phenylethyl)aminopropyl]-BLM] | 20840 mcg potency/mg | 2150 mcg potency/mg | 0% | 0/9 | 0/27 | 0% | 0
CCCCCCCCNC(=O)C(N)CNC(CC(N)=O)c1nc(N)c(C)c(C(=O)NC(C(=O)NC(C)C(O)C(C)C(=O)NC(C(=O)NCCc2nc(-c3nc(C(=O)NCCC[N+](CC)(CC)CCCN(Cc4ccccc4)Cc4ccccc4)cs3)cs2)C(C)O)C(OC2OC(CO)C(O)C(O)C2OC2OC(CO)C(O)C(OC(N)=O)C2O)c2cnc[nH]2)n1 (stereo not shown) [Compound 56, 3-{N,N--diethyl-N--[3-(dibenzylamino)propyl]amino}propylamino-(amido)N--[octyl]-BLM] | 41380 mcg potency/mg | 520 mcg potency/mg | 0% | 0/9 | 0/27 | 0% | 0
CCCCN(CCCC)CCCNC(=O)C(N)CNC(CC(N)=O)c1nc(N)c(C)c(C(=O)NC(C(=O)NC(C)C(O)C(C)C(=O)NC(C(=O)NCCc2nc(-c3nc(C(=O)NCCCN(C)CCCNCC4CCCCCCC4)cs3)cs2)C(C)O)C(OC2OC(CO)C(O)C(O)C2OC2OC(CO)C(O)C(OC(N)=O)C2O)c2cnc[nH]2)n1 (stereo not shown) [Compound 58, 3-[N--methyl-N--[3-(cyclooctylmethylamino)propyl]amino}-propylamino-(amido)N--[3-(di-n-butyamino)propyl]-BLM] | 62418 mcg potency/mg | 5518 mcg potency/mg | 0% | 0/9 | 0/27 | 0% | 0
CCCCCCCCNC(=O)C(N)CNC(CC(N)=O)c1nc(N)c(C)c(C(=O)NC(C(=O)NC(C)C(O)C(C)C(=O)NC(C(=O)NCCc2nc(-c3nc(C(=O)NCCCN(C)CCCNCC4CCCCCCC4)cs3)cs2)C(C)O)C(OC2OC(CO)C(O)C(O)C2OC2OC(CO)C(O)C(OC(N)=O)C2O)c2cnc[nH]2)n1 (stereo not shown) [Compound 59, 3-{N--methyl-N--[3-(cyclooctylmethylamino)propyl]amino}propyl-amino-(amido)N--[octyl]-BLM] | 65733 mcg potency/mg | 5473 mcg potency/mg | 0% | 0/9 | 0/27 | 0% | 0
